Publication PMC11505038, “Kalata B1 Enhances Temozolomide Toxicity to Glioblastoma Cells” (Biomedicines, 2024)
Where two headings read alike, the source gives them in different places.

Assays:
[1] = tested on: U-87 MG human glioblastoma cells; details: MTT, 72 h, previously published data; cited from earlier work
Procedure: Table 4 Toxicity and IC50 values of five cyclotides and TMZ in SH-SY5Y, U-87 MG, and T-98G cell cultures. | column: IC50 (μM) ± S.D. || The IC50 values of natural and synthetic cyclotides, as well as TMZ, are provided in Table 4. […] The IC50 values were calculated using nonlinear regression analysis with dose-dependent inhibition and an inhibitor vs. no ... || Figure 5 Effect of natural and synthetic Kalata B1 on cell viability in SH-SY5Y, U-87MG, and T-98G cells cultures. The IC50 values for the cyclotides were determined using MTT assay after incubation with cells at increasing concentrations (0.1, 1, 5, and 10 μM) as compared to the control. Panel (A): SH-SY5Y and U-87 MG cells, and panel (B) T-98G and U-87 MG cells. Cultures (6000 cells per well in a 96-well plate), were treated with the cyclotide indicated, for 72 h, then MTT measured. Cell viability was calculated as a percentage of control cultures. IC50 values were calculated using the Best ... || (+ 4 further places)

[2] = tested on: T-98G human glioblastoma cells; assay: cells; details: Homo sapiens, T98G, 72 h, read-out: IC50 (μM) ± S.D.
Procedure: (§1) SH-SY5Y human neuroblastoma cells (population doubling (PD) 20−24), T-98G, and U-87 MG human glioblastoma cells were removed from cryogenic storage, thawed rapidly in a water bath (37 °C) and reconstituted in 75 cm^2 flasks. For SH-SY5Y, the following media were used: Dulbecco’s modified Eagle’s medium/Nutrient F12 Ham (Sigma-Aldrich, Cat. No. D8437) containing 10% heat-inactivated fetal bovine serum, 4 mM L-glutamine, 100 U/mL penicillin, and 100 μg/mL streptomycin. For U-87 MG and T-98G Eagle’s minimal essential medium (ATCC: The Global Bioresource Center, Cat. No. ATCC 30-2003), containing 10% heat-inactivated fetal bovine serum, 4 mM L-glutamine, 100 U/mL penicillin, and 100 μg/mL streptomycin were used.
(§2) Cells were incubated at 37 °C in a humidified atmosphere of 5% CO2 and 95% air until recovered and ready for passaging (approximately 4 days). At between 80% and 90% confluence, the cells were trypsinized with warm (37 °C) sterile 0.5% Trypsin-EDTA (Thermo Fisher, Cat. No. 15400054) and passaged into 175 cm^2 flasks, where they were left to multiply until they reached 80−90% confluence. To plate cells: cultures were trypsinized, resuspended in 20 mL sterile PBS, counted using a cell counter (Olympus cell counter model R1), and plated in 96-well plates at an optimal density of 6000 cells/well in the designated culture media. The cells were left to adhere overnight before treatment the following day, when the culture medium was removed and replaced with the treatment medium. All incubations were conducted in triplicate wells and repeated at least three times (n = 3).
(§3) To calculate TMZ IC50 values in each cell line, TMZ was dissolved in DMSO at a stock concentration of 103 mM, which was then diluted into culture medium on the day of use, with the DMSO final concentration always less than 0.1%. The following concentrations of TMZ were used in the experiments: 0.5, 5, 50, 500, 2500, 5000 μM. The media were sterilized for each treatment media with a 0.22 μm filter before they were added to cell cultures. To determine the IC50 values for each cyclotide in each cell type, cyclotides were dissolved into 10% DMSO and then dilutions used to screen cyclotides with a final DMSO concentration of less than 0.1% The following concentrations of cyclotides were used: 0.1, 1, 5, 10 μM. For co-exposure experiments, a simultaneous exposure of cyclotide and TMZ at each respective dose was added to cell cultures (100 μL final volume per well).
(§4) In accordance with the methods developed by Mosmann and colleagues, the MTT assay was conducted using the Roche cell proliferation kit (Cat. No. 11465007001). Briefly, cells that are active can cleave MTT. The MTT is originally a yellow tetrazolium salt that undergoes a colorimetric change to purple formazan crystals, and the change in absorbance can be measured as an indicator of cell viability/proliferation. For these experiments, cells were plated into 96-well flat-bottom plates, as described in the cell culture above. […] To align with our previous work, experiments were conducted with a 72 h time frame for cytotoxicity evaluation.
(§5) After a 72 h incubation period, plates were removed from the incubator and 10 µL of MTT was added to each well. The plates were returned to the incubator for an additional 4 h, after which 100 µL of a solubilization solution was added to each well. The plates were returned to incubation overnight, and the next day absorbances were read at 570 nm on a Molecular Devices FlexStation 3 using SoftMax Pro Microplate Data Acquisition and Analysis Software (version 7.0.2).

[3] = tested on: U-87 MG human glioblastoma cells; assay: cells
Procedure: as §1, §2, §3, §4, §5

[4] = tested on: TMZ-resistant cell line T-98G; details: ref Lee 31, read-out: Range of TMZ IC50 values summarized in the literature; cited from earlier work
Source text: Symptoms of GBM include seizures, headaches, nausea, and memory loss, and the side effects of TMZ can not only intensify headaches and nausea but also include diarrhea, constipation, loss of appetite, and sores in the mouth and throat. TMZ is an oral DNA alkylating agent that induces cell cycle arrest at G2/M, and its cytotoxicity is mediated by the addition of methyl groups at N^7 and O^6 sites on guanines and the […] in genomic DNA. A thymine instead of a cytosine is inserted during the alkylation of the O^6 site on guanine, which can cause cell death during DNA replication. ...

[5] = tested on: U-87 MG cells; assay: Phase contrast microscopy of U-87 MG cultures; type: cell-based, human; details: 72 h, 150 µM TMZ alone or 0.5 µM synthetic Kalata B1 alone, 20× phase contrast
[6] = tested on: SH-SY5Y human neuroblastoma cells; details: MTT, 72 h, previously published data; cited from earlier work
Procedure: Table 4 Toxicity and IC50 values of five cyclotides and TMZ in SH-SY5Y, U-87 MG, and T-98G cell cultures. | column: IC50 (μM) ± S.D. || Figure 5 Effect of natural and synthetic Kalata B1 on cell viability in SH-SY5Y, U-87MG, and T-98G cells cultures. The IC50 values for the cyclotides were determined using MTT assay after incubation with cells at increasing concentrations (0.1, 1, 5, and 10 μM) as compared to the control. Panel (A): SH-SY5Y and U-87 MG cells, and panel (B) T-98G and U-87 MG cells. Cultures (6000 cells per well in a 96-well plate), were treated with the cyclotide indicated, for 72 h, then MTT measured. Cell viability was calculated as a percentage of control cultures. IC50 values were calculated using the Best ... || To evaluate the cytotoxicity of plant-derived Kalata B1 and synthetic Kalata B1, MTT assays were performed with T-98G, U-87 MG, and SH-SY5Y cell cultures.

For `Cn1nnc2c(C(N)=O)ncn2c1=O` [TMZ, temozolomide], the IC50 [1] is listed as 2898 ± 6 µM, the IC50 [2] is listed as 1160 ± 5.31 µM and the “Cell death in MTT cell viability assay” value [3] is listed as “less than 15%”. The IC50 ([3]; Homo sapiens, U-87 MG, 72 h, read-out: IC50 (μM) ± S.D.) was 1617 ± 5.56 µM, the IC50 [4] was 250 to 1580 µM and the “Morphological changes versus control cultures, single agent” value [5] was “little differences”. For the same molecule, the IC50 [6] was 393 ± 4.5 µM.
